Measurements as given in US20170334899A1, “AMINO-SUBSTITUTED ISOTHIAZOLES” (Bayer Pharma Aktiengesellschaft, priority 2014, published 2017).

Target: T1, human kinase Mps-1 (Homo sapiens, UniProt P33981)
T1 construct: N-terminally GST-tagged human full length recombinant Mps-1 kinase; GST (N); purchased Invitrogen, Karslruhe, Germany PV4071
T1 sequence (P33981 1-857): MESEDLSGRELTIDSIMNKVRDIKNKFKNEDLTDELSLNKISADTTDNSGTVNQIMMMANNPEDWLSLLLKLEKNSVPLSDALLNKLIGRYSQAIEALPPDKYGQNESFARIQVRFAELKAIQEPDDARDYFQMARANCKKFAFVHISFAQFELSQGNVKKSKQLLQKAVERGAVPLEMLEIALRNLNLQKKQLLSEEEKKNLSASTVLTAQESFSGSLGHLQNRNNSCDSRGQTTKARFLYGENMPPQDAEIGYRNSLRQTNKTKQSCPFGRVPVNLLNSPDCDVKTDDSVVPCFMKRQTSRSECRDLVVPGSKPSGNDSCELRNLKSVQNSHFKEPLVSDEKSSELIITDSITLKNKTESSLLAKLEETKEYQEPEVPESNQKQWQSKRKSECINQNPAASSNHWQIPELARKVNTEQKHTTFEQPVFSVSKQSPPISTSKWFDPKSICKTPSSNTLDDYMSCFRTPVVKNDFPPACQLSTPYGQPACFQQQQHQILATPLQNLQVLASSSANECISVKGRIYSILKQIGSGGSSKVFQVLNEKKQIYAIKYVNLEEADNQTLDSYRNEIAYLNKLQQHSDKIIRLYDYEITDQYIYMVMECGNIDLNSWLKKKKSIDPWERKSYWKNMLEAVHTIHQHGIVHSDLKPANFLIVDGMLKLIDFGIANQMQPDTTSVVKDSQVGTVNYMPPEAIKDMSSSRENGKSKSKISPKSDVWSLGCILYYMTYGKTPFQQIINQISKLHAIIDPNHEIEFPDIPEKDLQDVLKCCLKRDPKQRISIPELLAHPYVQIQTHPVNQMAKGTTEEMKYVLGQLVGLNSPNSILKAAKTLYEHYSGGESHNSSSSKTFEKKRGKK
Assay: Mps-1 kinase assay (TR-FRET)
Format: biochemical
Settings: Mps-1 TR-FRET kinase assay; avg; read-out: Mps1 avg (IC50 [mol/l])
In short: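 GST-tagged full-length recombinant human Mps-1 (~0.5 nM) pre-incubated 15 min with compound, then reacted 60 min at 22 °C with 10 μM ATP and 1 μM biotinylated peptide in Hepes pH 7.7 buffer. EDTA-stopped; TR-FRET (Eu anti-phospho-Ser/Thr to SA-XLent) 665/620 nm ratio normalised to no-inhibitor and no-enzyme controls.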

Row | SMILES | IC50 [µM]
1 | Cc1nsc(Nc2cnc(C(F)(F)F)cn2)c1C(=O)Nc1ccc(F)c(OCCCN(C)CC(F)(F)F)c1 [Example 302, N-(4-fluoro-3-{3-[methyl(2,2,2-trifluoroethyl)amino]propoxy}phenyl)-3-methyl-5-{[5-(trifluoromethyl)pyrazin-2-yl]amino}-1,2-thiazole-4-carboxamide] | > 20
2 | Cc1nsc(Nc2cnc(C(F)(F)F)cn2)c1C(=O)Nc1ccc(F)c(OCCCN(C)CCC(F)(F)F)c1 [Example 303, N-(4-fluoro-3-{3-[methyl(3,3,3-trifluoropropyl)amino]propoxy}phenyl)-3-methyl-5-{[5-(trifluoromethyl)pyrazin-2-yl]amino}-1,2-thiazole-4-carboxamide] | ≥ 20
3 | Cc1nsc(Nc2cncc(C(F)(F)F)n2)c1C(=O)Nc1ccc(OC2CCN(CCC(F)(F)F)CC2)nc1 [Example 304, 3-methyl-5-{[6-(trifluoromethyl)pyrazin-2-yl]amino}-N-(6-{[1-(3,3,3-trifluoropropyl)piperidin-4-yl]oxy}pyridin-3-yl)-1,2-thiazole-4-carboxamide] | > 20
4 | Cc1nsc(Nc2cnc(C(F)(F)F)cn2)c1C(=O)Nc1ccc(OCCNCC(F)F)nc1 [Example 305, N-(6-{2-[(2,2-difluoroethyl)amino]ethoxy}pyridin-3-yl)-3-methyl-5-{[5-(trifluoromethyl)pyrazin-2-yl]amino}-1,2-thiazole-4-carboxamide] | ≥ 20
5 | Cc1nsc(Nc2cnc(C(F)(F)F)cn2)c1C(=O)Nc1ccc(F)c(OCCCNCC(F)(F)F)c1 [Example 306, N-(4-fluoro-3-{3-[(2,2,2-trifluoroethyl)amino]propoxy}phenyl)-3-methyl-5-{[5-(trifluoromethyl)pyrazin-2-yl]amino}-1,2-thiazole-4-carboxamide] | ≥ 20
6 | Cc1nsc(Nc2cnc(C(F)(F)F)cn2)c1C(=O)Nc1ccc(F)c(OCCCNCCC(F)(F)F)c1 [Example 307, N-(4-fluoro-3-{3-[(3,3,3-trifluoropropyl)amino]propoxy}phenyl)-3-methyl-5-{[5-(trifluoromethyl)pyrazin-2-yl]amino}-1,2-thiazole-4-carboxamide] | ≥ 20
7 | Cc1nsc(Nc2cnc(C(F)(F)F)cn2)c1C(=O)Nc1ccc(F)c(OCC2CCN(CC(F)F)CC2)c1 [Example 308, N-(3-{[1-(2,2-difluoroethyl)piperidin-4-yl]methoxy}-4-fluorophenyl)-3-methyl-5-{[5-(trifluoromethyl)pyrazin-2-yl]amino}-1,2-thiazole-4-carboxamide] | ≥ 20
8 | Cc1nsc(Nc2cnc(C(F)(F)F)cn2)c1C(=O)Nc1ccc(F)c(OCC2CCN(CCF)CC2)c1 [Example 309, N-(4-fluoro-3-{[1-(2-fluoroethyl)piperidin-4-yl]methoxy}phenyl)-3-methyl-5-{[5-(trifluoromethyl)pyrazin-2-yl]amino}-1,2-thiazole-4-carboxamide] | ≥ 20
9 | Cc1nsc(Nc2cnc(C(F)(F)F)cn2)c1C(=O)Nc1ccc(F)c(OCC2CCN(CCC(F)(F)F)CC2)c1 [Example 311, N-(4-fluoro-3-{[1-(3,3,3-trifluoropropyl)piperidin-4-yl]methoxy}phenyl)-3-methyl-5-{[5-(trifluoromethyl)pyrazin-2-yl]amino}-1,2-thiazole-4-carboxamide] | > 20
10 | Cc1nsc(Nc2cnc(C(F)(F)F)cn2)c1C(=O)Nc1ccc(F)c(OCC2CCN(C(CF)CF)CC2)c1 [Example 312, N-(3-{[1-(1,3-difluoropropan-2-yl)piperidin-4-yl]methoxy}-4-fluorophenyl)-3-methyl-5-{[5-(trifluoromethyl)pyrazin-2-yl]amino}-1,2-thiazole-4-carboxamide] | ≥ 20
11 | Cc1nsc(Nc2cnc(C(F)(F)F)cn2)c1C(=O)Nc1ccc(OC2CCN(C(CF)CF)C2)nc1 (centres unmarked) [Example 313, N-(6-{[1-(1,3-difluoropropan-2-yl)pyrrolidin-3-yl]oxy}pyridin-3-yl)-3-methyl-5-{[5-(trifluoromethyl)pyrazin-2-yl]amino}-1,2-thiazole-4-carboxamide] | ≥ 20
12 | Cc1nsc(Nc2cnc(C(F)(F)F)cn2)c1C(=O)Nc1ccc(F)c(OC2CCN(CC(F)F)C2)c1 (centres unmarked) [Example 314, N-(3-{[1-(2,2-difluoroethyl)pyrrolidin-3-yl]oxy}-4-fluorophenyl)-3-methyl-5-{[5-(trifluoromethyl)pyrazin-2-yl]amino}-1,2-thiazole-4-carboxamide] | ≥ 20

Results, then the compound that gave them:

Row | IC50 [µM] | SMILES
13 | > 20 | Cc1nsc(Nc2cnc(C(F)(F)F)cn2)c1C(=O)Nc1ccc(OCCCNCCC(F)(F)F)nc1 [Example 294, 3-methyl-5-{[5-(trifluoromethyl)pyrazin-2-yl]amino}-N-(6-{3-[(3,3,3-trifluoropropyl)amino]propoxy}pyridin-3-yl)-1,2-thiazole-4-carboxamide]
14 | > 20 | Cc1nsc(Nc2cnc(C(F)(F)F)cn2)c1C(=O)Nc1ccc(OC2CCN(CCF)C2)nc1 (centres unmarked) [Example 295, N-(6-{[1-(2-fluoroethyl)pyrrolidin-3-yl]oxy}pyridin-3-yl)-3-methyl-5-{[5-(trifluoromethyl)pyrazin-2-yl]amino}-1,2-thiazole-4-carboxamide]
15 | > 20 | Cc1nsc(Nc2cnc(C(F)(F)F)cn2)c1C(=O)Nc1ccc(OC2CCN(CC(F)F)C2)nc1 (centres unmarked) [Example 296, N-(6-{[1-(2,2-difluoroethyl)pyrrolidin-3-yl]oxy}pyridin-3-yl)-3-methyl-5-{[5-(trifluoromethyl)pyrazin-2-yl]amino}-1,2-thiazole-4-carboxamide]
16 | 12 | Cc1nsc(Nc2cnc(C(F)(F)F)cn2)c1C(=O)Nc1ccc(OC2CCN(CC(F)(F)F)C2)nc1 (centres unmarked) [Example 297, 3-methyl-N-(6-{[1-(2,2,2-trifluoroethyl)pyrrolidin-3-yl]oxy}pyridin-3-yl)-5-{[5-(trifluoromethyl)pyrazin-2-yl]amino}-1,2-thiazole-4-carboxamide]
17 | > 20 | Cc1nsc(Nc2cnc(C(F)(F)F)cn2)c1C(=O)Nc1ccc(OC2CCN(CCC(F)(F)F)C2)nc1 (centres unmarked) [Example 298, 3-methyl-5-{[5-(trifluoromethyl)pyrazin-2-yl]amino}-N-(6-{[1-(3,3,3-trifluoropropyl)pyrrolidin-3-yl]oxy}pyridin-3-yl)-1,2-thiazole-4-carboxamide]
18 | > 20 | Cc1nsc(Nc2cnc(C(F)(F)F)cn2)c1C(=O)Nc1ccc(N(C)C)c(OCCCN(C)CC(F)(F)F)c1 [Example 299, N-[4-(dimethylamino)-3-{3-[methyl(2,2,2-trifluoroethyl)amino]propoxy}phenyl]-3-methyl-5-{[5-(trifluoromethyl)pyrazin-2-yl]amino}-1,2-thiazole-4-carboxamide]
19 | > 20 | Cc1nsc(Nc2cnc(C(F)(F)F)cn2)c1C(=O)Nc1ccc(N(C)C)c(OCCCN(C)CCC(F)(F)F)c1 [Example 300, N-[4-(dimethylamino)-3-{3-[methyl(3,3,3-trifluoropropyl)amino]propoxy}phenyl]-3-methyl-5-{[5-(trifluoromethyl)pyrazin-2-yl]amino}-1,2-thiazole-4-carboxamide]
20 | > 20 | Cc1nsc(Nc2cnc(C(F)(F)F)cn2)c1C(=O)Nc1ccc(F)c(OCCCN(C)CC(F)F)c1 [Example 301, N-(3-{3-[(2,2-difluoroethyl)(methyl)amino]propoxy}-4-fluorophenyl)-3-methyl-5-{[5-(trifluoromethyl)pyrazin-2-yl]amino}-1,2-thiazole-4-carboxamide]
